Reference: paper PMC8849072, “Sudapyridine (WX-081), a Novel Compound against Mycobacterium tuberculosis” (Microbiology Spectrum, 2022)
≈ marks a conversion by molar mass, not a printed value.

Tests used:
[1] = test system: M. tuberculosis clinical strain 13908; experiment: MIC by microplate alamarBlue assay (MABA); format: cell-based, Mycobacterium tuberculosis; details: strain 13908: resistant to INH RFP EMB 1321 PAS OFX LFX; for MIC: Mycobacterium tuberculosis
[2] = test system: M. tuberculosis clinical strain 14158; experiment: MIC by microplate alamarBlue assay (MABA); format: cell-based, Mycobacterium tuberculosis; details: strain 14158: resistant to INH SM RFP EMB AK 1321 PAS OFX; for MIC: Mycobacterium tuberculosis
[3] = test system: M. tuberculosis clinical strain 16825; experiment: MIC by microplate alamarBlue assay (MABA); format: cell-based, Mycobacterium tuberculosis; details: strain 16825: resistant to INH RFP AK RFT; for MIC: Mycobacterium tuberculosis
[4] = test system: M. tuberculosis clinical strain 14862; experiment: MIC by microplate alamarBlue assay (MABA); format: cell-based, Mycobacterium tuberculosis; details: strain 14862: resistant to INH SM RFP EMB 1321 CPM PAS; for MIC: Mycobacterium tuberculosis
[5] = test system: M. tuberculosis clinical strain 14619; experiment: MBC determination (CFU-based); details: strain 14619: resistant to INH RFP KM CPM AK 1321 PAS; 7 days incubation, 3 log10 CFU decrease
[6] = test system: M. tuberculosis clinical strain 15321; experiment: MBC determination (CFU-based); details: strain 15321: resistant to INH RFP EMB AK ETO OFLX RFT; 7 days incubation, 3 log10 CFU decrease
[7] = test system: M. tuberculosis clinical strain 14550; experiment: MIC by microplate alamarBlue assay (MABA); format: cell-based, Mycobacterium tuberculosis; details: strain 14550: resistant to INH SM RFP EMB KM CPM AK 1321 PAS; for MIC: Mycobacterium tuberculosis
[8] = test system: M. tuberculosis clinical strain 14092; experiment: MIC by microplate alamarBlue assay (MABA); format: cell-based, Mycobacterium tuberculosis; details: strain 14092: resistant to INH SM RFP; for MIC: Mycobacterium tuberculosis
[9] = test system: M. tuberculosis clinical strain 14619; experiment: MIC by microplate alamarBlue assay (MABA); format: cell-based, Mycobacterium tuberculosis; details: strain 14619: resistant to INH RFP KM CPM AK 1321 PAS; for MIC: Mycobacterium tuberculosis
[10] = test system: M. tuberculosis clinical strain 14441; experiment: MBC determination (CFU-based); details: strain 14441: resistant to INH RFP RBT AK CPM 1321 OFLX LVFX; 7 days incubation, 3 log10 CFU decrease
[11] = test system: M. tuberculosis clinical strain 15321; experiment: MIC by microplate alamarBlue assay (MABA); format: cell-based, Mycobacterium tuberculosis; details: strain 15321: resistant to INH RFP EMB AK ETO OFX RFT; for MIC: Mycobacterium tuberculosis
[12] = test system: M. tuberculosis clinical strain 15833; experiment: MIC by microplate alamarBlue assay (MABA); format: cell-based, Mycobacterium tuberculosis; details: strain 15833: resistant to INH RFP RFT; for MIC: Mycobacterium tuberculosis
[13] = test system: M. tuberculosis clinical strain 16030; experiment: MIC by microplate alamarBlue assay (MABA); format: cell-based, Mycobacterium tuberculosis; details: strain 16030: resistant to INH RFP RFT; for MIC: Mycobacterium tuberculosis
[14] = test system: M. tuberculosis clinical strain 14282; experiment: MIC by microplate alamarBlue assay (MABA); format: cell-based, Mycobacterium tuberculosis; details: strain 14282: resistant to INH SM RFP EMB RBT 1321 OFX LFX; for MIC: Mycobacterium tuberculosis
[15] = test system: M. tuberculosis clinical strain 15833; experiment: MBC determination (CFU-based); details: strain 15833: resistant to INH RFP RFT; 7 days incubation, 3 log10 CFU decrease
[16] = test system: M. tuberculosis clinical strain 14822; experiment: MIC by microplate alamarBlue assay (MABA); format: cell-based, Mycobacterium tuberculosis; details: strain 14822: resistant to INH SM RFP EMB KM RBT AK 1321 PAS; for MIC: Mycobacterium tuberculosis
[17] = test system: M. tuberculosis clinical strain 13946; experiment: MIC by microplate alamarBlue assay (MABA); format: cell-based, Mycobacterium tuberculosis; details: strain 13946: resistant to INH SM RFP EMB RBT PAS OFX; for MIC: Mycobacterium tuberculosis
[18] = test system: M. tuberculosis clinical strain 14470; experiment: MIC by microplate alamarBlue assay (MABA); format: cell-based, Mycobacterium tuberculosis; details: strain 14470: resistant to INH SM RFP EMB KM RBT AK CPM 1321 PAS; for MIC: Mycobacterium tuberculosis
[19] = test system: M. tuberculosis clinical strain 14441; experiment: MIC by microplate alamarBlue assay (MABA); format: cell-based, Mycobacterium tuberculosis; details: strain 14441: resistant to INH RFP RBT AK CPM 1321 OFX LFX; for MIC: Mycobacterium tuberculosis

SMILES	MIC [1] [µg/mL]	MIC [2] [µg/mL]	MIC [3] [µg/mL]	MIC [4] [µg/mL]	MBCs [5] [µg/mL]	MBCs [6] [µg/mL]	MIC [7] [µg/mL]	MIC [8] [µg/mL]	MIC [9] [µg/mL]	MBCs [10] [µg/mL]	MIC [11] [µg/mL]	MIC [12] [µg/mL]	MIC [13] [µg/mL]	MIC [14] [µg/mL]	MBCs [15] [µg/mL]	MIC [16] [µg/mL]	MIC [17] [µg/mL]	MIC [18] [µg/mL]	MIC [19] [µg/mL]	further results
COc1nc2ccc(Br)cc2cc1[C@@H](c1ccccc1)[C@@](O)(CCN(C)C)c1cccc2ccccc12 [BDQ, bedaquiline]	0.266 (≈ 0.479 µM)	0.03 (≈ 0.054 µM)	0.06 (≈ 0.108 µM)	0.006 (≈ 0.0108 µM)	0.156	>0.313	0.051 (≈ 0.0918 µM)	0.048 (≈ 0.0864 µM)	0.052 (≈ 0.0936 µM)	>2.5	0.028 (≈ 0.0504 µM)	0.09 (≈ 0.162 µM)	0.017 (≈ 0.0306 µM)	0.053 (≈ 0.0954 µM)	>0.32	0.111 (≈ 0.2 µM)	0.021 (≈ 0.0378 µM)	0.468 (≈ 0.842 µM)	0.214 (≈ 0.385 µM)	–
NNC(=O)c1ccncc1 [INH, isoniazid]	3.01 (≈ 21.9 µM)	> 40	2.37 (≈ 17.3 µM)	2.17 (≈ 15.8 µM)	–	–	2.25 (≈ 16.4 µM)	2.41 (≈ 17.5 µM)	4.38 (≈ 31.9 µM)	–	1.04 (≈ 7.56 µM)	4.5 (≈ 32.8 µM)	2.45 (≈ 17.9 µM)	2.35 (≈ 17.1 µM)	–	> 40	1.81 (≈ 13.2 µM)	> 40	> 40	–
NC[C@H]1O[C@H](O[C@H]2[C@H](O)[C@@H](O[C@H]3O[C@H](CO)[C@@H](O)[C@H](N)[C@H]3O)[C@H](N)C[C@@H]2N)[C@H](O)[C@@H](O)[C@@H]1O [KM, kanamycin]	–	–	–	–	–	–	–	–	–	–	–	–	–	–	–	–	–	–	–	MICs [1]: 1.151 µg/mL; MICs [2]: >40 µg/mL; MICs [3]: >40 µg/mL; MICs [4]: 1.243 µg/mL; MICs [7]: 1.186 µg/mL; MICs [8]: 1.199 µg/mL; MICs [9]: 1.195 µg/mL; MICs [11]: >40 µg/mL; MICs [12]: 2.302 µg/mL; MICs [13]: 1.072 µg/mL; MICs [14]: 1.199 µg/mL; MICs [16]: >40 µg/mL; MICs [17]: 0.788 µg/mL; MICs [18]: 0.437 µg/mL; MICs [19]: >40 µg/mL
CO[C@H]1/C=C/O[C@@]2(C)Oc3c(C)c(O)c4c(O)c(c(/C=N/N5CCN(C)CC5)c(O)c4c3C2=O)NC(=O)/C(C)=C\C=C\[C@H](C)[C@H](O)[C@@H](C)[C@@H](O)[C@@H](C)[C@H](OC(C)=O)[C@@H]1C [RFP, rifampicin]	6.9 (≈ 8.39 µM)	> 40	> 40	15.2 (≈ 18.5 µM)	–	–	> 40	> 40	> 40	–	> 40	> 40	> 40	> 40	–	> 40	> 40	> 40	> 40	–
COc1ncc(-c2ccc(Cl)cc2)cc1[C@@H](c1ccccc1)[C@@](O)(CCN(C)C)c1cccc2ccccc12 [WX-081, sudapyridine]	0.849 (≈ 1.58 µM)	0.111 (≈ 0.207 µM)	0.226 (≈ 0.421 µM)	0.026 (≈ 0.0484 µM)	0.313	>1.25	0.17 (≈ 0.317 µM)	0.235 (≈ 0.438 µM)	0.3 (≈ 0.559 µM)	>5	0.109 (≈ 0.203 µM)	0.236 (≈ 0.439 µM)	0.057 (≈ 0.106 µM)	0.113 (≈ 0.21 µM)	>1.25	0.48 (≈ 0.894 µM)	0.098 (≈ 0.182 µM)	0.966 (≈ 1.8 µM)	0.465 (≈ 0.866 µM)	–
